Among the data in patent US5773646A, “Meta-substituted phenylene derivatives” (G. D. Searle & Co., priority 1997, dated 1998) are IC50 values, retold here.

SMILES strings stand for the structures. Structures can show the parent of a compound that is named as a salt.

The target in assay [1] is T1, Human fibrinogen receptor (αIIb β3) (Homo sapiens, UniProt P05106+P08514).
T1 construct: Human fibrinogen receptor (αIIb β3) was purified from outdated platelets; from tissue; host or cells: outdated human platelets
As to the kind of experiment: Purified IIb/IIIa receptor assay (solid phase receptor assay, biotinylated vitronectin competition). Particulars: inhibition of 50% of the maximum binding of biotinylated vitronectin; 1 nM labeled ligand, 2 hours, room temperature, highest concentration of test compound 1.0×10^-4 M. The method in brief:
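Platelet-purified αIIbβ3 was coated at 100 ng/well in TBS with 1 mM Ca²⁺/Mg²⁺/Mn²⁺, pH 7.4, then BSA-blocked. Compound (up to 1.0×10⁻⁴ M final) competed with 1 nM biotinylated vitronectin for 2 h at room temperature. Bound ligand was detected with HRP anti-biotin at A450, normalized to maximum binding, and curve-fitted.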

Assay [2] has as its target T2, Human vitronectin receptor (αv β3) (Homo sapiens, UniProt P05106+P06756).
T2 construct: Human vitronectin receptor(αv β3) was purified from human placenta; from tissue; host or cells: human placenta
As to the kind of experiment: Vitronectin adhesion assay (solid phase receptor assay, biotinylated vitronectin competition). In kind it is binding. Particulars: inhibition of 50% of the maximum binding of biotinylated vitronectin; 1 nM labeled ligand, 2 hours, room temperature, highest concentration of test compound 1.0×10^-4 M; read-out: AvB3 IC50. In outline:
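Placenta-purified αvβ3 coated at 1.0 μg/mL in TBS (1 mM Ca, Mg, Mn, pH 7.4), overnight 4 °C. Compound competed 2 h at RT with 1 nM biotinylated vitronectin (final; top compound 1.0×10^-4 M); bound ligand detected by HRP anti-biotin/OPD at 450 nm, normalized to no-competitor controls, four-parameter fit.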

A word on the IC50: it is the concentration that inhibits the measured activity by half. For the compound `CNC(=NC#N)Nc1cccc(C(=O)NCc2cccc(C(CC(=O)O)c3ccccc3)c2)c1` (stereo not drawn) [Example 55, 3-[[[[3-[[(cyanoimino)(methylamino)methyl]amino]phenyl]carbonyl]amino]methyl]-β-phenylbenzenepropanoic acid], the IC50 in assay [1] stood at 13400 nM; in assay [2], 108 nM.

`C[C@H](CC(=O)O)c1cccc(CNC(=O)c2cccc(NC(=N)N)c2)c1` [Example 56, 3-[[[[3-[(aminoiminomethyl)amino]phenyl]carbonyl]amino]methyl]-βR-methylbenzenepropanoic acid, trifluoroacetate salt hydrate]: the half-maximal inhibitory concentration (IC50) in assay [1] stood at 1310 nM; in assay [2], 6.88 nM.

`C[C@@H](CC(=O)O)c1cccc(CNC(=O)c2cccc(NC(=N)N)c2)c1` [Example 57, 3-[[[[3-[(aminoiminomethyl)amino]phenyl]carbonyl]amino]methyl]-βS-methylbenzenepropanoic acid]: the results for the IC50 in assay [1] and in assay [2] were 17600 nM and 189 nM, respectively.

Turning to `O=C(O)CCc1cccc(OCC(O)c2cccc(NC3=NCCN3)c2)c1` (stereo not shown) [Example 71, 3-[2-[3-[(4,5-dihydro-1H-imidazol-2-yl)amino]phenyl]-2-hydroxyethoxy]benzenepropanoic acid, trifluoroacetate salt], the values for the IC50 in assay [1] and in assay [2] were 9750 nM and 30.4 nM, respectively.

For the compound `O=C(O)COc1cccc(C(=O)/C=C/c2cccc(NC3=NCCN3)c2)c1` [Example 72, 2-[3-[3-[3-[(4,5-dihydro-1H-imidazol-2-yl)amino]phenyl]-1-oxo-2-propenyl]phenoxy]acetic acid, trifluoroacetate salt hydrate], the IC50 was determined as 8100 nM in assay [1] and 168 nM in assay [2].

Regarding `N=C(N)Nc1cccc(/C=C/C(=O)c2cccc(OCC(=O)O)c2)c1` [Example 73, 2-[3-[3-[3-[(aminoiminomethyl)amino]phenyl]-1-oxopropenyl]phenoxy]acetic acid, monohydrochloride], the IC50 was 11300 nM in assay [1] and 589 nM in assay [2].

Consider `N=C(N)Nc1cccc(C#Cc2cccc(C(CC(=O)O)c3ccccc3)c2)c1` (stereo not drawn) [Example 74, 3-[2-[3-[(aminoiminomethyl)amino]phenyl]ethynyl]-β-phenylbenzenepropanoic acid, trifluoroacetate salt], for which the half-maximal inhibitory concentration (IC50) was found to be 20100 nM in assay [1] and 1480 nM in assay [2].

Take `N=C(N)Nc1cccc(/C=C/c2cccc(C(CC(=O)O)c3ccccc3)c2)c1` (stereo not drawn) [Example 75, 3-[2E-[3-[(aminoiminomethyl)amino]phenyl]ethenyl]-β-phenylbenzenepropanoic Acid, Bis(trifluoroacetate) Salt]: the IC50 in assay [1] was 6150 nM; in assay [2], 54.5 nM.

In the case of `N=C(N)Nc1cccc(/C=C\c2cccc(C(CC(=O)O)c3ccccc3)c2)c1` (stereo not drawn) [Example 76, 3-[2Z-[3-[(aminoiminomethyl)amino]phenyl]ethenyl]-β-phenylbenzenepropanoic Acid, Bis(trifluoroacetate) Salt], the figures for the IC50 in assay [1] and in assay [2] were 1770 nM and 87 nM, respectively.

Regarding `N=C(N)Nc1cccc(S(=O)(=O)Nc2cccc(C(CC(=O)O)c3cc(Cl)cc(Cl)c3)c2)c1` (stereo not drawn) [Example 77, β-[3-[[[3-[(aminoiminomethyl)amino]phenyl]sulfonyl]amino]phenyl]-3,5-dichlorobenzene Propanoic Acid, Trifluoroacetate Salt], the IC50 was 5820 nM in assay [1] and 32.5 nM in assay [2].

With `N=C(N)Nc1cccc(S(=O)(=O)Nc2cccc(C(CC(=O)O)c3cc(F)cc(F)c3)c2)c1` (stereo not drawn) [Example 78, β-[3-[[[3-[(aminoiminomethyl)amino]phenyl]sulfonyl]amino]phenyl]-3,5-difluorobenzenepropanoic Acid, Trifluoroacetate Salt], the figures for the IC50 in assay [1] and in assay [2] were 803 nM and 2.54 nM, respectively.

Regarding `N=C(N)Nc1cccc(S(=O)(=O)Nc2cccc(C(CC(=O)O)c3ccc(F)cc3)c2)c1` (stereo not drawn) [Example 79, β-[3-[[[3-[(aminoiminomethyl)amino]phenyl]sulfonyl]amino]phenyl]-4-fluorobenzenepropanoic Acid, Trifluoroacetate Salt], the figures for the half-maximal inhibitory concentration (IC50) in assay [1] and in assay [2] were 327 nM and 10 nM, respectively.

In the case of `N=C(N)Nc1cccc(S(=O)(=O)Nc2cccc(C(CC(=O)O)c3cc(F)c(F)c(F)c3)c2)c1` (stereo not drawn) [Example 80, β-[3-[[[3-[(aminoiminomethyl)amino]phenyl]sulfonyl]amino]phenyl]-3,4,5-trifluorobenzenepropanoic Acid, Trifluoroacetate Salt], the IC50 turned out to be 1370 nM in assay [1] and 13 nM in assay [2].

With `N=C(N)Nc1cccc(S(=O)(=O)Nc2cccc(C(CC(=O)O)c3c(F)c(F)c(F)c(F)c3F)c2)c1` (stereo not drawn) [Example 81, β-[3-[[[3-[(aminoiminomethyl)amino]phenyl]sulfonyl]amino]phenyl]perfluorobenzenepropanoic Acid, Trifluoroacetate Salt], the IC50 in assay [1] came to 2550 nM; in assay [2], 86 nM.

Consider `N=C(N)Nc1cccc(S(=O)(=O)Nc2cccc(C(CC(=O)O)c3c(F)c(F)cc(F)c3F)c2)c1` (stereo not drawn) [Example 82, β-[3-[[[3-[(aminoiminomethyl)amino]phenyl]sulfonyl]amino]phenyl]-2,3,5,6-tetrafluorobenzenepropanoic Acid, Trifluoroacetate Salt], for which the IC50 in assay [1] worked out at 11700 nM; in assay [2] it was 191 nM.

Regarding `O=C(O)CC(c1cc(F)cc(F)c1)c1cccc(NS(=O)(=O)c2cccc(NC(=S)NCc3ccccc3)c2)c1` (stereo not drawn) [Example 83, 3,5-difluoro-β-[3-[[[3-[[[(phenylmethyl)amino]thiocarbonyl]amino]phenyl]sulfonyl]amino]phenyl]benzenepropanoic Acid], the concentration for half-maximal inhibition (IC50) in assay [1] was 18900 nM; in assay [2] it was 122 nM.

Turning to `O=C(O)CC(c1cc(F)cc(F)c1)c1cccc(NS(=O)(=O)c2cccc(NC=NCc3ccccc3)c2)c1` (stereo not drawn) [Example 84, 3,5-difluoro-β-[3-[[[3-[[[(phenylmethyl)imino]methyl]amino]phenyl]sulfonyl]amino]phenyl]benzenepropanoic Acid, Trifluoroacetate Salt], the IC50 in assay [1] turned out to be 15100 nM; in assay [2] it was 82 nM.

With `N=C(N)Nc1cccc(SCc2cccc(C(CC(=O)O)c3ccccc3)c2)c1` (stereo not drawn) [Example 87, 3-[[3-[(aminoiminomethyl)amino]phenylthio]methyl]-β-phenylbenzenepropanoic Acid, Trifluoroacetate Salt], the IC50 in assay [1] was 3300 nM; in assay [2], 51.2 nM.

As for `N=C(N)Nc1cccc([S+]([O-])Cc2cccc(C(CC(=O)O)c3ccccc3)c2)c1` (stereo not drawn) [Example 88, 3-[[[3-[(aminoiminomethyl)amino]phenyl]sulfinyl]methyl]-β-phenylbenzenepropanoic Acid, Trifluoroacetate Salt], the figures for the half-inhibitory concentration (IC50) in assay [1] and in assay [2] were 870 nM and 19.6 nM, respectively.

Turning to `N=C(N)Nc1cccc(S(=O)(=O)Cc2cccc(C(CC(=O)O)c3ccccc3)c2)c1` (stereo not drawn) [Example 89, 3-[[[3-[(aminoiminomethyl)amino]phenyl]sulfonyl]methyl]-β-phenylbenzenepropanoic Acid, Trifluoroacetate Salt], the IC50 in assay [1] is 799 nM; in assay [2] it was 4.56 nM.

For `NC(=O)N=C(N)Nc1cccc(S(=O)(=O)Nc2cccc(C(CC(=O)O)c3cc(Cl)cc(Cl)c3)c2)c1` (stereo not drawn) [Example 90, β-[3-[[[3-[[amino[(aminocarbonyl)imino]methyl]amino]phenyl]sulfonyl]amino]phenyl]-3,5-dichlorobenzenepropanoic Acid, Trifluoroacetate Salt], the IC50 worked out at 13800 nM in assay [1] and 88.9 nM in assay [2].

Consider `NC(=O)N=C(N)Nc1cccc(S(=O)(=O)Nc2cccc(C(CC(=O)O)c3cc(F)cc(F)c3)c2)c1` (stereo not drawn) [Example 91, β-[3-[[[3-[[amino[(aminocarbonyl)imino]methyl]amino]phenyl]sulfonyl]amino]phenyl]-3,5-difluorobenzenepropanoic Acid, Trifluoroacetate Salt], for which the IC50 came out at 1070 nM in assay [1] and 8.39 nM in assay [2].

Take `CCC(CC(=O)O)c1cccc(NS(=O)(=O)c2cccc(NC(=N)N)c2)c1` (stereo not drawn) [Example 94, 3-[[[3-[(aminoiminomethyl)amino]phenyl]sulfonyl]amino]-β-ethylbenzenepropanoic Acid, Trifluoroacetate Salt]: the figures for the IC50 in assay [1] and in assay [2] were 2050 nM and 12.1 nM, respectively.

`CCC(CC(=O)O)c1cccc(NS(=O)(=O)c2cccc(NC(N)=NC(N)=O)c2)c1` (stereo not drawn) [Example 95, 3-[[[3-[[amino[(aminocarbonyl)imino]methyl]amino]phenyl]sulfonyl]amino]-β-ethylbenzenepropanoic Acid, Trifluoroacetate Salt]: the half-maximal inhibitory concentration (IC50) is 8450 nM in assay [1] and 35.7 nM in assay [2].

Turning to `N=C(N)Nc1cccc(COc2cccc(C(CC(=O)O)c3ccccc3)c2)c1` (stereo not drawn) [Example 96, 3-[[3-[(aminoiminomethyl)amino]phenyl]methoxy]-β-phenylbenzenepropanoic Acid, Trifluoroacetate Salt], the IC50 in assay [1] stood at 2280 nM; in assay [2], 435 nM.

Take `O=C(O)CC(c1cc(F)cc(F)c1)c1cccc(NS(=O)(=O)c2cccc(NC3=NCCCN3)c2)c1` (stereo not drawn) [Example 97, 3,5-difluoro-β-[3-[[[3-[(1,4,5,6-tetrahydropyrimidin-2-yl)amino]phenyl]sulfonyl]amino]phenyl]benzenepropanoic Acid, Bis(trifluoroacetate) Salt]: the IC50 turned out to be 262 nM in assay [1] and 0.75 nM in assay [2].
